Among the data in US5476874A, “New HIV protease inhibitors” (Merck & Co., Inc., priority 1994, dated 1995) are IC50 values, retold here.

The experiment has as its target T1, HIV protease (Human immunodeficiency virus type 1 group M subtype B, UniProt P04585).
T1 construct: the protease expressed in Escherichia coli; made in house; host or cells: Escherichia coli
Nature of the experiment: Assay for Inhibition of Microbial Expressed HIV Protease. The format is biochemical. The conditions noted are these: protease expressed in Escherichia coli; peptide substrate Val-Ser-Gln-Asn-(betanaphthyl)Ala-Pro-Ile-Val; 50 mM Na acetate, pH 5.5, 30° C., 1 hour; HPLC readout. As to the method: Assay for Inhibition of Microbial Expressed HIV Protease
Inhibition studies of the reaction of the protease expressed in Escherichia coli with a peptide substrate [Val-Ser-Gln-Asn-(betanaphthyl)Ala-Pro-Ile-Val, 0.5 mg/mL at the time the reaction is initiated] were in 50 mM Na acetate, pH 5.5, at 30° C. for 1 hour. Various concentrations of inhibitor in 1.0 ul DMSO were added to 25 ul of the peptide solution in water. The reaction is initiated by the addition of 15 ul of 0.33 nM protease […] in a solution of 0.133 M Na acetate pH 5.5 and 0.26% bovine serum albumin. The reaction was quenched with 160 ul of 5% phosphoric acid. Products of the reaction were separated by HPLC (VYDAC wide pore 5 cm C-18 reverse phase, acetonitrile gradient, 0.1% phosphoric acid). The extent of inhibition of the reaction was determined from the peak heights of the products.

A word on the IC50: it is the midpoint of a concentration-inhibition curve. A low value points to greater potency in that assay. Turning to `CC(C)CN(CC(O)CC(Cc1ccccc1)C(=O)NC1c2ccccc2CC1O)C(=O)OCc1ccccc1` [Compound A, N-(2'(R)-hydroxy-1'(S)-indanyl)-2(R)-phenylmethyl-4(S)-hydroxy-5-[((2'''-methyl)propyl)-benzyloxycarbonyl]-amino-pentaneamide], the IC50 fell in the range of 8 to 9 nM.
